Test [1] concerns the target T1, Sentrin-specific protease 1 (Homo sapiens, UniProt Q9P0U3).
T1 sequence (Q9P0U3 whole entry): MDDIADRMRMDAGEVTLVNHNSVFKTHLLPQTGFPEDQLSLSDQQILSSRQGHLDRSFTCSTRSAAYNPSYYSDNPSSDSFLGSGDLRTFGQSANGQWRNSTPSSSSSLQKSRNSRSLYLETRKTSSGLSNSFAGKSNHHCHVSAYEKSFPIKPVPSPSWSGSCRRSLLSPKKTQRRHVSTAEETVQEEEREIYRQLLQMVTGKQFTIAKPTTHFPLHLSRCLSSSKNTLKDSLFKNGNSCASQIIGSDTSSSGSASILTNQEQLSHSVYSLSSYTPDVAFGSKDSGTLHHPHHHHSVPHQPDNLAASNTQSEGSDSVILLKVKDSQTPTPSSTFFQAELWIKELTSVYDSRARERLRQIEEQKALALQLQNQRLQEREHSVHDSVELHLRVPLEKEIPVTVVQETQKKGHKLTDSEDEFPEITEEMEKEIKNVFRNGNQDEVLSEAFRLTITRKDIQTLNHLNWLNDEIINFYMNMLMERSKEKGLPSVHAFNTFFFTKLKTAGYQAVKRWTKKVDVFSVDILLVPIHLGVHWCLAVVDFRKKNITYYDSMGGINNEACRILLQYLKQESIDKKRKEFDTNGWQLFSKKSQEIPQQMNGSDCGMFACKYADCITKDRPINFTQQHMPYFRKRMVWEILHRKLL
Kind of test: SENP1 catalytic domain blockers, concentration series – biochemical, kinetic FRET, dose response (AID 651697). The following applies: read-out: IC50_Mean. Format: functional.

For test [2], the target named is T2, Rac GTPase-activating protein 1 (Homo sapiens, UniProt Q9H0H5).
T2 sequence (Q9H0H5 whole entry): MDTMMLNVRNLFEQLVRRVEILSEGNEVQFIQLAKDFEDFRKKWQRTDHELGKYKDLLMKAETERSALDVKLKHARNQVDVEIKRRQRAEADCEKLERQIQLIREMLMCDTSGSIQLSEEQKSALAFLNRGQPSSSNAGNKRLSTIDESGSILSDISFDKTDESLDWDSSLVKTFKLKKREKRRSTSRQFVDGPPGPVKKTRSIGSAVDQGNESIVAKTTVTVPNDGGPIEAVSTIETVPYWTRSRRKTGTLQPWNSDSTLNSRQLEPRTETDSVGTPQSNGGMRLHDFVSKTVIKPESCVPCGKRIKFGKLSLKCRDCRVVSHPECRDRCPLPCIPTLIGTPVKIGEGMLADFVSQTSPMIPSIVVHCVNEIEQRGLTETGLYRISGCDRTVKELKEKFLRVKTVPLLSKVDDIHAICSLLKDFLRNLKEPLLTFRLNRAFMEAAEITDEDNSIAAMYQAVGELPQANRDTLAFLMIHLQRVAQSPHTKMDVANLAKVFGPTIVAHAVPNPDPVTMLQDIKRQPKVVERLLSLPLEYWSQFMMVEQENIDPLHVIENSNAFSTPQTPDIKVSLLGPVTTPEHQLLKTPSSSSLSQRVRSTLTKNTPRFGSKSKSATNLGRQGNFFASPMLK
Kind of test: blockers of MgcRacGAP-driven Rac1 GTP hydrolysis – biochemical, ADP Hunter fluorescence, primary and confirmatory, confirmation (AID 624330). It counts as functional.

In test [3] the target is T3, Zinc finger protein mex-5 (Caenorhabditis elegans, UniProt Q9XUB2).
T3 sequence (Q9XUB2 whole entry): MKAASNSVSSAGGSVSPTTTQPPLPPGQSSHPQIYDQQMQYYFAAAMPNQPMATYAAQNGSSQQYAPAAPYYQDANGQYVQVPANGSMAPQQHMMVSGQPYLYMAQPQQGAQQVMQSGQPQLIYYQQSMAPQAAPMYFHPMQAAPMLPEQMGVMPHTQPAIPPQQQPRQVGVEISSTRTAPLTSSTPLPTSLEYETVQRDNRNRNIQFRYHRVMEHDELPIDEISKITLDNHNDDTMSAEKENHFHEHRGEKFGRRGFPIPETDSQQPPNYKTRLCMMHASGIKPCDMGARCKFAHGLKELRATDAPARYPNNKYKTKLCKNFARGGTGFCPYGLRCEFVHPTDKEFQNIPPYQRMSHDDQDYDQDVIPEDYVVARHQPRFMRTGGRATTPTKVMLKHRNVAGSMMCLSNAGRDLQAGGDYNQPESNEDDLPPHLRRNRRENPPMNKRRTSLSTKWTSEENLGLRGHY
Kind of test: potency of MEX-5 RNA-binding blockers – biochemical, C. elegans, fluorescence polarization, dose response (AID 1960). In general terms: Polarisation of emitted light reports the rotation of a fluorescent probe.

The target of test [4] is T1, Sentrin-specific protease 1. Kind of test: Dose response confirmation of small molecule inhibitors of the catalytic domain of the SUMO protease, SENP1 in a FRET assay. Format: functional. The following applies: read-out: IC50_Mean.
For test [5], the target named is T4, RNA-binding protein pos-1 (Caenorhabditis elegans, UniProt G5EF15).
T4 sequence (G5EF15 whole entry): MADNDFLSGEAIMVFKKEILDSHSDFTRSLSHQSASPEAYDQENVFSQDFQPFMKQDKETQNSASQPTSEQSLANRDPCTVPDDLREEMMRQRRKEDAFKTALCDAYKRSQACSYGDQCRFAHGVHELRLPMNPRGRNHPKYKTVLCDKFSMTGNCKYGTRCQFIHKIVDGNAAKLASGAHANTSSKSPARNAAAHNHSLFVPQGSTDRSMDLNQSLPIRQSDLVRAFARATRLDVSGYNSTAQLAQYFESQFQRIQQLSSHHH
Kind of test: disruptors of C. elegans POS-1 RNA interaction – biochemical, fluorescence polarization, dose response (AID 1964).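 Note: purified POS-1 fused to maltose binding protein made in E. coli; potency of compounds blocking POS-1 binding to fluorescent RNA.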

Another test has as its system Vero. Description: cells. It counts as functional. Conditions: Chlorocebus sabaeus.
Test [6] can be described thus: Luminescence Cell-Based Dose Retest to Confirm Inhibitors of Cancer Stem Cells. [Related pubchem assays (depositor defined):AID2717, AID2721]. It counts as functional. The following applies: Homo sapiens.
For test [7], the target named is T5, Heat shock factor protein 1 (Mus musculus, UniProt P38532).
T5 sequence (P38532 whole entry): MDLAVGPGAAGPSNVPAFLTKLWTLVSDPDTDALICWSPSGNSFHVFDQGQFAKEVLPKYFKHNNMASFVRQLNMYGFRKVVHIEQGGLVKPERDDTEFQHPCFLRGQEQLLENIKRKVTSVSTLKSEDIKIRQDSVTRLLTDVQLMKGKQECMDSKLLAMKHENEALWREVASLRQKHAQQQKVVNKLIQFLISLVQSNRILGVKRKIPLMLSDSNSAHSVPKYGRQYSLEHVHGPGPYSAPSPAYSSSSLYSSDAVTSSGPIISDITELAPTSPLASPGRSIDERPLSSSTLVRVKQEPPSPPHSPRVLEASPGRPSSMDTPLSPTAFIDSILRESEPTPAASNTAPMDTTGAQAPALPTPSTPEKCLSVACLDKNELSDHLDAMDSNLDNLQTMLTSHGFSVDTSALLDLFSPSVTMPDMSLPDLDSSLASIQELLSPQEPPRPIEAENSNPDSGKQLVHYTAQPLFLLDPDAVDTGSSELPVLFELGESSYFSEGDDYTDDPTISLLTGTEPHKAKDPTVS
Description: enhancement of HSF1-driven luciferase signal – cell-based, NIH3T3, luminescence, dose retest, confirmation (AID 435004).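 Note: stress induced by proteasome inhibitor MG132 added 30 min after compound; luciferase reporter driven by HSF1 response element in NIH3T3 cells; actives raise luminescence as potentiators of the MG132 stress response.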 It counts as functional.

The target of test [8] is Hepatocyte nuclear factor 4-alpha (Homo sapiens, UniProt P41235). It counts as functional, cell-based.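 Note: biochemical luminescence-based dose-response counterscreen measuring inhibition of HNF4 dimerization, run alongside a screen for blockers of ABHD5–perilipin-5 interaction; split luciferase complementation of HNF4 fusion proteins in cell lysate measuring dimerization.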
Chain of Hepatocyte nuclear factor 4-alpha (P41235 whole entry, the tested form may be a part): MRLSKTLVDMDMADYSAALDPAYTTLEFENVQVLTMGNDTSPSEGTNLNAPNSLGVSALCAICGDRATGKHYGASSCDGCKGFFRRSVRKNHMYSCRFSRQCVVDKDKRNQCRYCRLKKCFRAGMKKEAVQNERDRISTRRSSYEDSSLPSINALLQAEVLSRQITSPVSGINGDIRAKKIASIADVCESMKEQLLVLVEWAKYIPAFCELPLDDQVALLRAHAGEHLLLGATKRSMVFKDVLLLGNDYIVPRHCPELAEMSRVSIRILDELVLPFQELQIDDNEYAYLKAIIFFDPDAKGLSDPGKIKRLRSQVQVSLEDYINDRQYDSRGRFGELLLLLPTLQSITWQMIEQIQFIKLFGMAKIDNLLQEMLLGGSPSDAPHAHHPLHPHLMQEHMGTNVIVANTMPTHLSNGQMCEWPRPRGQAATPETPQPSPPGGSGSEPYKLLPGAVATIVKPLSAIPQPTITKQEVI
The target in test [9] is T6, Acyl-homoserine lactone acylase PvdQ (Pseudomonas aeruginosa (strain LESB58), UniProt Q9I194).
T6 sequence (Q9I194 whole entry): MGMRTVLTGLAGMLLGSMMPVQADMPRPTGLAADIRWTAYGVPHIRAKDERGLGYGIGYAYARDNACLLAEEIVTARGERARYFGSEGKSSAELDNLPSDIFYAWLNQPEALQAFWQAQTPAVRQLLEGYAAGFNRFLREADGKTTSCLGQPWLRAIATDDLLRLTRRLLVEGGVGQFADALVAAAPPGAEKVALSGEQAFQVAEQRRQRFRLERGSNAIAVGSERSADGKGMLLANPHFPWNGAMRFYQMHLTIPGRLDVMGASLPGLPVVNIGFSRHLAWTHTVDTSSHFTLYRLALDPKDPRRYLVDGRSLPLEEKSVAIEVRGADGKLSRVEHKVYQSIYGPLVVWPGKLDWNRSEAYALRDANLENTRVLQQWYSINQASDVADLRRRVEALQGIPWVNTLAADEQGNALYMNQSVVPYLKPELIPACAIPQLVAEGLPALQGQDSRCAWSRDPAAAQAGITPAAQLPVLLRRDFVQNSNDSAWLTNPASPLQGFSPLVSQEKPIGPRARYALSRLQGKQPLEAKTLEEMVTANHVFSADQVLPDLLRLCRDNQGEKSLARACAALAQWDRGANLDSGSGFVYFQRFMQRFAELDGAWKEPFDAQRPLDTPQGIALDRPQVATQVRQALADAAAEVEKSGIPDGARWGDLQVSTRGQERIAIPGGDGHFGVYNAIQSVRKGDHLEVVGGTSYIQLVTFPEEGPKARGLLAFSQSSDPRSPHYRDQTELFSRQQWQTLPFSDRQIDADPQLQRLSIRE
Kind of test: PvdQ acylase enzyme activity blockers – biochemical, fluorescence, plate reader and imaging, cherry-picks, dose response (AID 493231).

In the next test the target is Beta-galactosidase (Escherichia coli, UniProt Q8VNN2). Kind of test: detection-enzyme interference by beta-gal modulators – biochemical, E. coli enzyme, set 3, artefact control for CCR6 antagonist project, dose response (AID 504712). It counts as functional.
Chain of Beta-galactosidase (Q8VNN2 whole entry): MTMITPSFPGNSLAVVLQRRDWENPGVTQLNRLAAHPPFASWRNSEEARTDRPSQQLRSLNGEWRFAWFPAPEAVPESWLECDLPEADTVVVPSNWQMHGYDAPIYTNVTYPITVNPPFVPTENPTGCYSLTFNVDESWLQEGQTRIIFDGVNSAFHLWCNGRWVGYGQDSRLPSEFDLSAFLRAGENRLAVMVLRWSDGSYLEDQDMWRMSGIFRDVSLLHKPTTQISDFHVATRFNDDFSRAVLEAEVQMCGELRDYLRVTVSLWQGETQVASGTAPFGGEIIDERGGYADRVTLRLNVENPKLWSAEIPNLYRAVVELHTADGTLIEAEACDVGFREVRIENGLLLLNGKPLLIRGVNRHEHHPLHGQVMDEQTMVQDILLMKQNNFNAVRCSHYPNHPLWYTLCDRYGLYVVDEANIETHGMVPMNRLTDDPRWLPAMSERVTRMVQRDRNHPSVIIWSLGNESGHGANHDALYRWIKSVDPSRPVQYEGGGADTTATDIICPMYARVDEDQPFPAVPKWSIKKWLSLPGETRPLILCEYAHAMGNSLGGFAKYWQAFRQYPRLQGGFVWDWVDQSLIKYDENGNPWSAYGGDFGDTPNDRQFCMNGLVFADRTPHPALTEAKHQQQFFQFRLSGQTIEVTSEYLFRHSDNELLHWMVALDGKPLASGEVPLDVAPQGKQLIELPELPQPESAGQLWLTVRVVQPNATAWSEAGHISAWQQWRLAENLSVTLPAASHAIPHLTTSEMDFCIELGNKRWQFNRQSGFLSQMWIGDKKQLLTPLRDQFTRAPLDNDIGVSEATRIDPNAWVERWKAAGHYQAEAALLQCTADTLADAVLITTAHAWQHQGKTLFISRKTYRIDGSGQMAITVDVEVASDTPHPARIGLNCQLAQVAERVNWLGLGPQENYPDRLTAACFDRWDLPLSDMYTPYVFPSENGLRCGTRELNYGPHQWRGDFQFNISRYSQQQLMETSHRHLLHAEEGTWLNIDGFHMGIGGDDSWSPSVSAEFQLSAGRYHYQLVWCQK
In test [10] the target is Peroxisome proliferator-activated receptor gamma/Nuclear receptor coactivator 1 (Homo sapiens, UniProt P37231). Kind of test: TR-FRET dose response biochemical High Throughput Screening assay for agonists of the steroid receptor coactivator 1 (SRC-1) recruitment by the peroxisome proliferator-activated receptor gamma (PPAR gamma): non-selective agonists. [Related pubchem assays (depositor defined):AID1300, AID1808, AID504735, AID631]. It counts as protein assay.

In test [11] the target is Luciferin 4-monooxygenase (Photinus pyralis, UniProt P08659). Kind of test: inhibition of purified Photinus pyralis luciferase – biochemical, luminescence, dose response (AID 1891).
Chain of Luciferin 4-monooxygenase (P08659 whole entry): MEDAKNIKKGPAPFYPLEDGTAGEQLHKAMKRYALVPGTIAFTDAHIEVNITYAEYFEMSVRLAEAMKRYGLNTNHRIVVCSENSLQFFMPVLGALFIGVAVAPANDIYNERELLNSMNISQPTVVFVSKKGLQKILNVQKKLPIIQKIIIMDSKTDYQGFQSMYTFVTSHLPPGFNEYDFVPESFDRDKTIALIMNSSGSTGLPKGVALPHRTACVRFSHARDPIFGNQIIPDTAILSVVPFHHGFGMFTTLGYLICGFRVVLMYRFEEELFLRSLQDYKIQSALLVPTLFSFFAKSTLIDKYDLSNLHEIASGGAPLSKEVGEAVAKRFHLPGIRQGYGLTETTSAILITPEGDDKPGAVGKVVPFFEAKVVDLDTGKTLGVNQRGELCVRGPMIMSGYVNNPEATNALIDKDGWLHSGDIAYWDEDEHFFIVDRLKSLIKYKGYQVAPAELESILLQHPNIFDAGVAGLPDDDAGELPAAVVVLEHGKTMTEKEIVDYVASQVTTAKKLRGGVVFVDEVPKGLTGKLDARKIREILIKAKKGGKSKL
For test [12], the target named is Peroxisome proliferator-activated receptor gamma/Nuclear receptor coactivator 2 (Homo sapiens, UniProt P37231). Kind of test: TR-FRET dose response biochemical High Throughput Screening assay for agonists of the steroid receptor coactivator 2 (SRC-2) recruitment by the peroxisome proliferator-activated receptor gamma (PPAR gamma): non-selective agonists. [Related pubchem assays: 1297, 1032 ]. It counts as functional. (In general: In TR-FRET formats the signal depends on donor and acceptor labels being close together.)

The nature of test [13]: Fluorescence-based cell-based high throughput dose response assay for inhibitors of the interaction of nucleotide-binding oligomerization domain containing 2 (NOD2) and the receptor-interacting serine-threonine kinase 2 (RIPK2). Conditions: Homo sapiens. It counts as functional.
For test [14], the target named is Peroxisome proliferator-activated receptor gamma/Nuclear receptor coactivator 3 (Homo sapiens, UniProt P37231). Kind of test: TR-FRET dose response biochemical High Throughput Screening assay for agonists of the steroid receptor coactivator 3 (SRC-3) recruitment by the peroxisome proliferator-activated receptor gamma (PPAR gamma): non-selective agonists. [Related pubchem assays: 1301 (Confirmation screen.), 1048 (Primary screen.)]. It counts as functional.
Chain of Peroxisome proliferator-activated receptor gamma/Nuclear receptor coactivator 3 (P37231 whole entry): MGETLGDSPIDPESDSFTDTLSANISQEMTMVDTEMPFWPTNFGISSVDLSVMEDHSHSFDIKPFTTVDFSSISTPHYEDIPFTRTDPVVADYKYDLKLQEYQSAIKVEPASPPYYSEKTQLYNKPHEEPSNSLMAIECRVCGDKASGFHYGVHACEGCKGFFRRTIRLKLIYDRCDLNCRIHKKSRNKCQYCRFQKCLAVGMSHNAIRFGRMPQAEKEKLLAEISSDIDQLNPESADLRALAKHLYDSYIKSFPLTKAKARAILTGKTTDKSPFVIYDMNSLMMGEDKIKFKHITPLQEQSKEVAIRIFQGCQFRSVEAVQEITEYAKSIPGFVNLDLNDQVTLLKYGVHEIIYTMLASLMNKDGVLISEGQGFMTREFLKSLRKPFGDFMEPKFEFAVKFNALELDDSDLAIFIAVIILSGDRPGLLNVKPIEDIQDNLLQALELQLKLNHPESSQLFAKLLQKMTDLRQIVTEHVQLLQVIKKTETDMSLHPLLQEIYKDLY
Chain of Peroxisome proliferator-activated receptor gamma/Nuclear receptor coactivator 3 (Q9Y6Q9 whole entry, further chain): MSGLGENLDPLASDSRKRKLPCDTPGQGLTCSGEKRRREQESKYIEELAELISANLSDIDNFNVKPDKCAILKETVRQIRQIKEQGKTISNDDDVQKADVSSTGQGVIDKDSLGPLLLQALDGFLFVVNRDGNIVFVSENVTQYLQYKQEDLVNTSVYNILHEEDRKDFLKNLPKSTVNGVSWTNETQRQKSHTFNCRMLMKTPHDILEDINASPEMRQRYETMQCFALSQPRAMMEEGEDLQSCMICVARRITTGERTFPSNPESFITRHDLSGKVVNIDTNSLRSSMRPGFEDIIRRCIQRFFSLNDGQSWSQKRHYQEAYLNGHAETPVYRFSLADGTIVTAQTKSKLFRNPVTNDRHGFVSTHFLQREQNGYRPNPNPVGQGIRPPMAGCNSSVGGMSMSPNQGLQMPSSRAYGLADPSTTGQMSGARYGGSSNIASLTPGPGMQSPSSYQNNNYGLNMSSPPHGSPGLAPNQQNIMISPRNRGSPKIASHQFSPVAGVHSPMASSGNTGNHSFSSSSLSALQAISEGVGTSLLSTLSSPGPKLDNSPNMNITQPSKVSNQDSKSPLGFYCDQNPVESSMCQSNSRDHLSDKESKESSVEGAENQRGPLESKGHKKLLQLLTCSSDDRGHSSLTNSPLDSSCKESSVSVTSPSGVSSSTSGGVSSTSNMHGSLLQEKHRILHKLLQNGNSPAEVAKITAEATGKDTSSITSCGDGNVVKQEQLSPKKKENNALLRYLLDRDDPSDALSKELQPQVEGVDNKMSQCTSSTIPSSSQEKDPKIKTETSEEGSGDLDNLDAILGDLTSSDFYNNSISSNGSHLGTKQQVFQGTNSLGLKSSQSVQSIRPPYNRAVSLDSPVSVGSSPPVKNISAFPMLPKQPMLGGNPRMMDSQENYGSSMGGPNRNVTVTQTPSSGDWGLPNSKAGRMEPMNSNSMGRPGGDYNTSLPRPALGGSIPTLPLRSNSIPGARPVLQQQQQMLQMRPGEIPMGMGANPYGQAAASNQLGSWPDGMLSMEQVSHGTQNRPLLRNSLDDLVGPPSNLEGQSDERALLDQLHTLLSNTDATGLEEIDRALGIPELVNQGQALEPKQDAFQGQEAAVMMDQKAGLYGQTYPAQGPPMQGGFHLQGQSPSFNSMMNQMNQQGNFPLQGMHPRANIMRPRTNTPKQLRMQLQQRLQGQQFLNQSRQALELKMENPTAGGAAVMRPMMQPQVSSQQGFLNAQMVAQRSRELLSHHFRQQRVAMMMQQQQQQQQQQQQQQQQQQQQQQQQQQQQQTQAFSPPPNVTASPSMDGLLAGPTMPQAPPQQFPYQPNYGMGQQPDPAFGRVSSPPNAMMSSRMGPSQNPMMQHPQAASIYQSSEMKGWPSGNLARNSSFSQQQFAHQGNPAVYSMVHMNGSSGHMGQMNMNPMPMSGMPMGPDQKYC

The target in a further test is Beta Lactamase (Pseudomonas aeruginosa, UniProt Q932Y6). Description: BLA reporter interference, concentration series – BLA reporter cells, FRET fluorescence, artefact control for NOD2-RIPK2 interaction inhibitor project, dose response (AID 651552). It counts as functional, cell-based.
Chain of Beta Lactamase (Q932Y6 whole entry): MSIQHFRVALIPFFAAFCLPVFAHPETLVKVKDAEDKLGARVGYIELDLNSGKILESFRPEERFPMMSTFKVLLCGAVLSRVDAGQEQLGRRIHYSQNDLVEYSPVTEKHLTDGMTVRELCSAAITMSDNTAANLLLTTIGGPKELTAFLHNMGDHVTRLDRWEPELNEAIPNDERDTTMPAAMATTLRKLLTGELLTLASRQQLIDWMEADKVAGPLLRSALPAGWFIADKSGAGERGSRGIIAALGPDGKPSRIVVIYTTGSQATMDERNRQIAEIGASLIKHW
A short description of test [15]: Luminescence Cell-Based Dose Confirmation HTS to Identify Inhibitors of Platelet Dense Granule Release. [Related pubchem assays: 1663 (Primary HTS), 1678 (Summary of Project)]. It counts as functional.
In test [16] the target is T7, Sentrin-specific protease 8 (Homo sapiens, UniProt Q96LD8).
T7 sequence (Q96LD8 whole entry): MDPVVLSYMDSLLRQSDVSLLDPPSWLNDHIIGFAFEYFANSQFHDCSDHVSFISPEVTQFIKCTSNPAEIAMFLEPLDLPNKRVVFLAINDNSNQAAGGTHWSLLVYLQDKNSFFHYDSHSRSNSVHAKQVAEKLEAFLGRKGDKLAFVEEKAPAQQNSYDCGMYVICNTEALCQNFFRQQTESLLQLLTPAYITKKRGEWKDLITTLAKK
It counts as functional.

Test [17] concerns the target T7, Sentrin-specific protease 8. It counts as functional. The source holds these as a separate data set.

Calls of active or inactive are those of the source.

For the molecule `OC1=C2Sc3ccc(Cl)cc3N=C2CCC1`, the values for the IC50 in test [1], in [2] and in test [4] were 13.7 µM (active), 42 µM (active) and 17.1 µM (active), respectively. For the same molecule, the EC50 is 8.9 µM (inconclusive) in test [3] and 18.4 µM (active) in test [5].

As for `CCOC(=O)/C(=C\c1ccc(Cl)cc1)c1nc(O)c2c(C)c(C)sc2n1`, the CC50 in the test on Vero was 16.5 µM (active). Also, the AC50 in test [6] was 0.981 µM (active). For the same molecule, the EC50 in test [7] is > 260 µM (inconclusive). Moreover, in test [8], the IC50 is 1.56 µM (active).

As for `O=C1/C(=C/c2ccc([N+](=O)[O-])cc2)Oc2cc(O)ccc21`, the figures for the IC50 in test [1] and in test [4] were 38.4 µM (inactive) and 10.1 µM (active), respectively. In addition, the EC50 in [7] was 175 µM (active). In addition, the concentration at half-maximal activity (AC50) in [9] is 53.7 µM (active).

As to `Cc1ccccc1N1C(=O)CC(Sc2nnc(-c3ccccc3)o2)C1=O` (centres undefined), the IC50 was > 66.6 µM (inactive) on Beta-galactosidase, 4.12 µM (active) in test [13] and 12.7 µM (inactive) on Beta Lactamase. Moreover, the EC50 in test [10] was > 26.5 µM (inactive); in test [11] it was > 112 µM (not active); in test [12], 26.2 µM (not active); in [7] it was 57.4 µM (active); in test [14], > 79.4 µM (not active); in [15], > 112 µM (not active).

As to `C[C@@H](OC(=O)c1nc[nH]c1C(=O)N1CCc2ccccc2C1)c1ccccc1`, the IC50 is 80.9 µM (inactive) in test [16] and 6.73 µM (active) in test [17].

As a reminder, the EC50 is the midpoint of the concentration-response curve. As a reminder, the CC50 is the concentration giving 50% cytotoxicity. By AC50 is commonly meant the midpoint of the concentration-response curve, whichever way the signal moves.

For the origin of these results see ChEMBL document CHEMBL1201862, “PubChem BioAssay data set” (2004).
